Data: patent US5374772A, “Substituted benzoic acids, inhibitors of phospholipases A2” (Hoffmann-LaRoche Inc., priority 1993, dated 1994)

How the values were obtained:
[1] = system: TPA-induced mouse ear edema; assay: TPA Induced Mouse Ear Edema Test (ear punch weight); type: in vivo, male CD-1 mice; settings: Mus musculus; 0.3 mg topical, 30 minutes prior to TPA, ear punch weight at 6 hours; read-out: % Inhib of TPA Mouse Ear Edema (0.3 mg)
Description: The TPA-induced mouse ear edema test, a model of irritant-induced contact dermatitis is described in the following reference: J. M. Young, B. M. Wagner and […]. Invest. Dermatology 80, 48-52 (1983). For this test, 10 μl of 12-O-tetradecanoylphorbol-13-acetate (TPA), dissolved in a vehicle of pyridine: water: diethyl ether (20:5:75), was applied to the outside of the right ear of 3-4 week old male CD-1 mice (8 animals per group). The test compounds were dissolved in the same vehicle and 10 μl was applied to the inside of the same ear 30 minutes prior to the application of TPA. Ear punches (6 mm) were removed at 6 hours after TPA application, weighed and assayed for myeloperoxidase (MPO) activity as described in the following reference: P. P. Bradley, […]. Christensen and G. Rothstein, J. Invest. Dermatology 78, 206-209 (1982). The wet weight of the ear biopsy punches is a measure of the ear edema and the level of MPO activity in the ear punches is an indicator of neutrophil infiltration. The data are expressed as percent inhibition of drug-[…] relative to the control group.

[2] = target: T1, HSF-PLA2 (extracellular PLA2 obtained from human synovial fluid) (Homo sapiens, UniProt P14555); assay: Assay for Inhibition of HSF-PLA2 In Vitro; type: biochemical; settings: for IC50: given as 50 % inhibition at the given concentration, 14C-oleate-labelled E. coli substrate, pH 7.3, 37° C., 30 minutes, read-out: % Inhib of HSF-PLA2: 50 (concentration) = IC50 (μM concentration that produces 50% inhibition of PLA2 activity)
T1 construct: extracellular enzyme obtained from human synovial fluid; from tissue; host or cells: pooled human synovial fluid (0.1% v/v in the assay)
T1 sequence (P14555 21-144): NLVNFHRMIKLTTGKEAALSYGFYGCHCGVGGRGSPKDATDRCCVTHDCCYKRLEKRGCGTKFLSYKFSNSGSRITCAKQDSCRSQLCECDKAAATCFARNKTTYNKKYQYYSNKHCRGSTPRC
Description: The PLA2 used in this test is the extracellular enzyme obtained from human synovial fluid (HSF-PLA2). The assay for HSF-PLA2 activity was a modification of the described method [Franson R., Dobrow R., Weiss, J., Elsbach P., and […]. Lipid Res., 19, 18-23 (1978)] which was conducted using [1-^14 C]-oleate-labelled E. coli substrate in excess at a final concentration of 20,000 dpm/ml. This was equivalent to 18.2 mM of cell membrane phospholipid phosphorus and 2×10^9 autoclaved E. coli/ml. The optimal conditions which were developed for the assay of HSF-PLA2 inhibitors are summarized as follows. […] The reaction was terminated by the addition of 2.5 ml of chloroform-methanol (1 to 1.5, v/v). The extraction of lipids from the stopped reaction mixture was conducted by the further additions of 0.5 ml of chloroform and 1 ml of water with mixing. […] The extracted lipid residue was redissolved in […] of a solution containing carrier oleic acid (0.2 mg/ml) of […]]). […] This TLC system rapidly (6 minutes) resolved the enzymatically released product, ^14 C-oleic acid, from the unreacted ^14 C-phospholipid substrate. The unsaturated lipids were located on the chromatogram by a brief exposure to iodine vapor. The oleic acid zone (Rf value 0.95) and phospholipid zone (origin) were cut out, chopped into small pieces, shaken with 2 ml of ethanol-water (80 to 20, v/v) and 15 ml of Aquasol and counted for radioactivity. A control incubation of substrate in the absence of HSF-PLA2 was performed in each experiment. The PLA2 activity of the human synovial fluid was corrected for this small control value. […] The specific activity of PLA2 in the pooled human synovial fluid under the optimal assay conditions was 49.2 nmoles [1-^14 C]-oleic acid released hour^-1 mg^-1. The IC50 (μM concentration of test compound that produces 50% inhibition of PLA2 activity) was determined for each test compound.

[3] = system: myeloperoxidase (MPO) activity, indicator of neutrophil infiltration; assay: TPA mouse ear test, myeloperoxidase activity in ear punches; type: in vivo, male CD-1 mice; settings: 0.3 mg topically
Description: For this test, 10 μl of 12-O-tetradecanoylphorbol-13-acetate (TPA), dissolved in a vehicle of pyridine: water: diethyl ether (20:5:75), was applied to the outside of the right ear of 3-4 week old male CD-1 mice (8 animals per group). The test compounds were dissolved in the same vehicle and 10 μl was applied to the inside of the same ear 30 minutes prior to the application of TPA. Ear punches (6 mm) were removed at 6 hours after TPA application, weighed and assayed for myeloperoxidase (MPO) activity as described in the following reference: P. P. Bradley, D. A. Priebat, R. D. Christensen and G. Rothstein, J. Invest. Dermatology 78, 206-209 (1982). The wet weight of the ear biopsy punches is a measure of the ear edema and the level of MPO activity in the ear punches is an indicator of neutrophil infiltration. The data are expressed as percent inhibition of drug-treatedanimals relative to the control group.

[4] = system: croton oil-induced mouse ear edema; assay: Croton Oil Mouse Ear Edema Test; type: in vivo, male CD-1 mice; settings: 1 mg topical, coapplied with croton oil, ear punch weight at 6 hours
Description: The croton oil-induced mouse ear edema test, a model of irritant-induced contact dermatitis, has been used for evaluation of the PLA2 inhibitors by the topical route of administration. This test was carried out as described in the following references:
The major active ingredient in croton oil is the tumor promoter 12-O-tetradecanoylphorbol-13-acetate (TPA) and the topical application of TPA to mouse skin has been reported to cause an increase in epidermal PGE2 production as well as an increase in epidermal cell membrane PLA2 activity. Indomethacin, an inhibitor of prostaglandin synthesis, prevented the TPA-mediated increase in epidermal PGE2 levels as well as the TPA-mediated induction of epidermal cell ornithine decarboxylase. Furthermore, the application of PGE2 to mouse skin countered the inhibitory effect of indomethacin upon TPA-stimulated cellular proliferation.
Twenty five μl of a 1% croton oil solution [dissolved in a mixture of pyridine/water/diethyl ether at a ratio of 5/20/75 (croton oil vehicle)] are applied to the outer side of the right ear of 3-4 week old male CD-1 mice (8 animals per group). The test compounds are dissolved directly in the 1% croton oil solution at various concentrations and coapplied. Control animals receive 25 μl of croton oil vehicle on the right ear. Biopsy punches are removed at 6 hours from the fight ear of the animals using a 6 mm skin trephine (Roboz, Washington, D.C.) and the wet weight of the ear punches is determined. The weight of the biopsy punches is a measure of ear inflammation, primarily edema. The data are expressed as percent inhibition relative to control groups.
Statistical analysis of the mean edema values of the control versus the treated groups is performed using Student's t-test. The significance of changes from the mean value for vehicle-treated (control) animals in the following Tables is indicated as follows: *p<0.05, **p<0.01, ***p<0.005,ns/not significant.

[5] = system: myeloperoxidase in colonic mucosa; assay: Acetic Acid-Induced Colitis in Rats; type: in vivo, Male rats (Sprague-Dawley); settings: 10 mg/kg orally
Source text: The rat acetic acid-induced colitis bioassay has been described by J. E. Krawisz, et al. in Amer. J. Proc. Gastro. Col. Rec. Surg. 31:11-18 (1980), and by P. Sharon and W. F. Stenson in Gastroenterology 88, 55-63 (1985) and 86, 453-460 (1984). Acetic acid-induced colitis is characterized by the movement of inflammatory cells into the colon, ,with the number of such cells in the mucosa being measured by the activity of myeloperoxidase, a marker enzyme for these cells. Positive desirable activity is indicated by a reduction in the high levels of myeloperoxidase caused by acetic acid. Male rats (Sprague-Dawley), weighing 150 to 300 g, were pretreated twice daily for two days with either the vehicle (water or dimethylsulfoxide) or the test inhibitor compound suspended in water or dissolved in dimethylsulfoxide and orally administered. […] The colonic mucosa was surgically removed and homogenized in an aqueous buffer at pH 6 with a Tissumizer or similar device and myeloperoxidase was measured in the homogenate using o-phenylenediamine as a chromagen, as described by A. Voller, D. E. Bidwell and A. Bartlett in "The Enzyme Linked Immunosorbent Assay (ELISA)", Zoological Soc., London, 1979, pages 29-30. […]

[6] = system: carrageenan-induced paw edema; assay: Rat Carrageenan Paw Edema; type: in vivo, Lewis rats; settings: 30 mg/kg ip, measured at 2 hours after carrageenan injection
Description: Representative compounds of the invention were tested in the rat carrageenan-induced paw edema test to determine their ability to inhibit this acute inflammatory response. Test compounds were administered intraperitoneally or orally to groups of seven Lewis rats (~200 gm) 1 hr prior to carrageenan administration. The test compounds were dissolved in dimethyl sulfoxide for intraperitoneal administration and dissolved or suspended in Labrafil […] for oral administration. At 0 hour, 0.1 mL of 1% carrageenan dissolved in pyrogen free saline was injected subplantarly into the right hind paw to elicit the inflammatory response. The volume (in mL) of the right hind paw was measured by immersion of the paw to the level of the lateral malleolus in an aqueous plethysmometer immediately prior to the injection of carrageenan and then at 1, 2 and 4 hr after carrageenan injection. The paw edema was calculated by subtracting the zero time reading from the readings taken after injection. The percent change of the edema volume from the vehicle treated control was calculated to determine the activity of the test compound. Statistical analysis of the mean paw edema values of the control versus the treated groups was performed using Student's t-test.

| SMILES | inhibition in vivo at 0.3 mg [1] [%] | IC50 [2] [µM] | % Inhib of myeloperoxidase in the TPA mouse ear test [3] [%] | % Inhib of Croton Oil Mouse Ear Edema (1 mg) [4] [%] | other results |
| --- | --- | --- | --- | --- | --- |
| CCCCCCCCCCOc1cc(OCCCOc2ccc(O)cc2)cc(C(=O)O)c1 [Example 40, 3-(Decyloxy)-5-[3-(4-hydroxyphenoxy)propoxy]benzoic acid] | 58 | 8.8 | 72 | – | – |
| CCCCCCCCCCCCCCOc1cc(OCCCCCCc2cccc(O)c2O)cc(C(=O)O)c1 [Example 63, 3-[[6-(2,3-dihydroxyphenyl)hexyl]oxy]-5-(tetradecyloxy)benzoic acid] | 61 | – | 61 | – | inhibition at 10 µM ([2]; read-out: % Inhib of HSF-PLA2): 88% |
| CCCCCCCCCCCCCCCCCCOc1cc(OCCCCCCc2cccc(O)c2O)cc(C(=O)O)c1 [Example 19, 3-[[6-(2,3-Dihydroxyphenyl)hexyl]oxy]-5-(octadecyloxy) benzoic acid] | 55 | 1.1 | 94 | 76 | inhibition of myeloperoxidase (acetic acid-induced colitis) [5]: 56±17% |
| CCCCCCCCCCCCCCCCCCOc1cc(OC(=O)C(c2ccccc2)c2ccccc2)cc(C(=O)O)c1 [Example 11, 3-(Octadecyloxy)-5-(2,2-diphenyl-1-oxoethoxy) benzoic acid] | – | 0.3 | – | 71 | – |
| CCCCCCCCCCCCCCCCCCOc1cccc(C(=O)O)c1OCCCOc1ccc(O)cc1 [Example 58, 2-[3-(4-Hydroxyphenoxy)propoxy]-3-(octadecyloxy) benzoic acid] | 48 | – | 62 | – | inhibition at 10 µM ([2]; read-out: % Inhib of HSF-PLA2): 93% |
| CCCCCCCCCCCCCCCCCCOc1cc(OCCCOc2ccccc2)cc(C(=O)O)c1 [Example 17, 3-(Octadecyloxy)-5-(3-phenoxypropoxy)benzoic acid] | – | 1.4 | – | 81 | – |
| CCCCCCCCCCOc1cc(OCCCCCCc2cccc(O)c2O)cc(C(=O)O)c1 [Example 68, 3-(Decyloxy)-5-[[6-(2,3-dihydroxyphenyl)hexyl]oxy]benzoic acid] | 58 | – | 89 | – | inhibition at 20 µM ([2]; 20 μM, read-out: % Inhib of HSF-PLA2): 74% |
| CCCCCCCCCCCCCCCCCCOc1cc(OC(=O)C23CC4CC(CC(C4)C2)C3)cc(C(=O)O)c1 [Example 13, 3-(Octadecyloxy)-5-[(tricyclo[3.3.1./3,7/]dec-1-ylcarbonyl)oxy]benzoic acid] | – | – | – | 81 | inhibition at 5 µM ([2]; 5 μM, read-out: % Inhib of HSF-PLA2): 86% |
| CCCCCCCCCCCCCCCCCCOc1cc(OCCCOc2ccc(O)cc2)cc(C(=O)O)c1 [Example 31, 3-[3-(4-Hydroxyphenoxy)propoxy]-5-(octadecyloxy) benzoic acid] | 58 | – | 70 | 84 | inhibition of the edema (rat carrageenan paw edema) [6]: 55%; inhibition at 1 µM ([2]; 1 μM, read-out: % Inhib of HSF-PLA2): 37% |
